What was measured:
[1] = doses of about 1-2 gm per day, cited from earlier work
cocaine conditioned mice = settings: 100 mg/kg for 3 days; cited from earlier work
[2] = cited from earlier work

`CC(=O)NCCCS(=O)(=O)OCC(C)(C)CCC(=O)O` [Compound 28, 5-{[3-(Acetylamino)propyl]sulfonyloxy}-4,4-dimethylpentanoic Acid] gave a melting point of 105.3 to 124.9 °C.

In the case of `CC(=O)NCCCS(=O)(=O)O` [acamprosate, 3-(Acetylamino)propylsulfonic acid], the steady-state plasma concentration [1] is listed as 370 to 640 ng/mL, the “time at which steady-state plasma concentration occurs” value ([1]; post-dose) is listed as 3 to 8 h and the relapse-like behavior (cocaine conditioned mice) is listed as “attenuated relapse-like behavior”. The mean elimination half-life ([2]; following intravenous infusion (15 min)) was 3.2 ± 0.2 h and the oral bioavailability ([2]; humans, oral) was “about 11%”.
